Measurements from publication PMC11885506, “Evaluation of a non-animal toolbox informed by adverse outcome pathways for human inhalation safety” (Frontiers in Toxicology, 2025).
“Also recorded” adds a separate entry of the source. Counter-ions that a name gives are not always drawn.

What was measured:
EpiAlveolar™ tissues [1] = assay: Cytokine and chemokine measurements (Luminex), EpiAlveolar model, Laboratory 2; format: cell-based, human; conditions: for MinPoD: EpiAlveolar™ model Laboratory-2
From the text: (§1) EpiAlveolar™ system was obtained from MatTek Corporation (Ashland, MA, United States, cat. no. ALV-100-FT-MAC, ALV-100-FT-MAC-PE12). According to the supplier, the tissue systems were derived from primary human alveolar epithelial cells and primary pulmonary fibroblasts, both from a same healthy donor, and pulmonary endothelial cells from another healthy donor, and THP-1 cell line derived macrophages. These tissues were differentiated by the manufacturer prior to shipping to the testing facilities. […] TEER was measured and only systems with confirmed quality of the tight junction barrier (>300 Ω.cm^2) and with approved morphological inspection were used in the experiments.
(§2) Vehicle control groups were also tested in parallel. Except for Doxorubicin (which underwent a 6-day chemical exposure + 6-day without exposure), exposures were conducted daily, on 12 consecutive days with different concentrations, through aerosol, apical or basolateral liquid exposure methods (Table 2). […] Each of the insert holders of the instrument base module was filled with Hanks’ Balanced Salt solution (HBSS) or PBS prior to placing the tissue inserts. Then, each test item solution/suspension was placed into the nebulizer reservoir for aerosol material exposure. The nebulizer was activated until the material solution/suspension was consumed and discharged into the main exposure chamber and allowed to fully gravity deposit out of the Cloud 12 (determined using a QCM). After exposure, the tissues were placed back into their multi-well culture plates containing the same medium, a further aliquot of media was added apically (20 µL for Akemi, 75 µL for all others except LPS) and returned to incubator until next exposure. Media used during the 6- or 12-day experimental period was prepared without Supplement X by MatTek. In medium exposure, the apical or basolateral liquid of each tissue was removed and replaced with each test item medium solution/suspension and returned to the incubator until the next exposure. After the beginning of the exposure cycles, tissues were only re-fed with new culture medium every 3-4 days.
In Laboratory 2, apical culture media samples of the tissues were collected, stored at −80°C until shipment, in dry ice with temperature monitor control, to Unilever SERS, where the analyses were performed. Upon receipt, samples were again stored in the −80°C until the analysis using Human Luminex® Discovery Assay kits (R&D Systems). The same readouts investigated for MucilAir™-HF tissue samples were quantified in these samples.

EpiAlveolar™ model = assay: Bioactivity exposure ratio (BER): lowest in vitro PoD of EpiAlveolar readouts / lower respiratory tract exposure estimate or Cmax; set-up: species or system human; conditions: Plasma
Procedure: (§4) Concentration and time-dependent changes in the bioactivity readout data were analyzed using a nonlinear state space model, based on the work of [Svensson and Schön (2017)]. […] All bioactivity readouts were included in the analysis (where available), i.e., measurements for tissue integrity loss (TEER) and functionality (MCC, CBF, and mucin secretion), cytokine/chemokine secretion, and the transcriptional LV values obtained using PLIER. The datasets were grouped so that a single state space model was used to capture all the responses (across time, concentration, and test material) for a single readout obtained within a particular study (laboratory/tissue model). Data were transformed to the log base 10 scale and normalized using z-scores, so that for a given readout Ytij from a laboratory/tissue model, the corresponding normalized value was given by y^tij=⁡log⁡10(Ytij)−μ)/σ . Here, the indexes i,j,t correspond to the different test materials, concentrations and timepoints, μ and σ are the sample mean and standard deviation of the control readout values obtained for the first timepoint. All measurement were then scaled so that the maximum median value across different replicates was one for all timepoints, readouts and test materials within a given laboratory/tissue model.
The model consists of state variables xti,j , response variables ytij and the concentrations of material c^i,j . The response variables yti,j represent the normalized (see below) readout values at timepoint t for material exposure i,j . The mean of the response variable is given by xti,j , so that yti,j∼xti,j+et , where et represents random fluctuations in the readout values, due to observational noise, which are taken to be normally distributed. Dynamical changes in state values are given by xti,j=fxt−1i,j,cti,j+vt . Here, fxt−1i,j,c^i,j is a non-linear function that represents interactions between different state variables and the perturbation caused by the test material at a given exposure at concentration c^i,j, and vt represents random fluctuations in state dynamics (which are also normally distributed). Following [Svensson and Schön (2017)], the nonlinear terms are based on an approximation to Gaussian processes, which are obtained using a basis function expansion-based approach. Inference of the model parameters was performed in the framework of Bayesian inference, wherein random draws of the posterior distribution were obtained using Sequential Monte Carlo (SMC), see [Svensson and Schön (2017)] and [Chopin and Papaspiliopoulos (2020)]. For each state space model representing a particular laboratory/readout dataset, SMC simulation was run for three chains at 5,000 iterations each, and first 1,000 iterations were discarded from the final posterior samples. The Rhat convergence diagnostic (Rhat < 1.1) was used to ensure the simulations had converged.
The state space model and posterior model parameter samples were then used to construct posterior predictive distributions of the response of each readout to a given test material for a given concentration and timepoint (see Figure 4). The posterior predictive distributions were used to estimate various statistics on the readout responses (median, 95% credible range etc.), PoDs, Concentration Dependency Scores (CDS) and two Effect Scores (increase and decrease). PoDs were defined as the concentration at which the mean response to a test material exceeded the 95% credible range of control for each timepoint (otherwise the mean response remains within the range of control). PoDs distribution for each timepoint, test material and readout, from which different statistical measures (e.g., the median, 95% credible range etc.) were calculated. The CDS was designed to provide confidence metric in whether an effect in the data was truly concentration dependent.

EpiAlveolar™ tissues [2] = assay: High-throughput transcriptomics (RNA-seq, PLIER latent variables), EpiAlveolar model, Laboratory 2; format: cell-based, human; conditions: Transcriptomics, biomarker 30
patients = test system: patients; set-up: method as in Budin et al., 2022; conditions: ref Budin et al., 2022; cited from earlier work
EpiAlveolar™ tissues [3] = assay: Histology and immunohistochemistry, EpiAlveolar model, Laboratory 2; conditions: Laboratory 2, 12-day period
Procedure: To evaluate the quality of EpiAlveolar™ tissues over the 12-day experimental period, histological and immunohistochemistry assessments for detection of pan-cytokeratin, vimentin, aquaporin 5, pro-surfactant C, CD68, caspase-3, and/or αSMA were performed by Laboratories 1 and 2.
Tissues were kept in 10% phosphate buffered formalin at 4°C for up to 48 h. Samples were then fixed in 70% ethanol and two strips of membrane were trimmed from each sample, processed, and paraffin-embedded to be cut at 5 µm thick sections and mounted to glass slides. The slides were then dewaxed in xylene, hydrated using graded industrial methylated spirit (70-100%) and stained with H&E for light microscope analysis.
For immunohistochemistry analysis, tissue sections-containing microscope slides were obtained and processed using a Discovery Ultra Staining System (Roche), according to manufacturer’s instructions, except for anti-CD68 staining that was manually performed. The slides were incubated at 60°C for 8 min and then deparaffinized at 69°C for 24 min. After that, slides were incubated with inhibitor CM or peroxidase blocking solution (for anti-CD68 staining) for 8 min at room temperature. The slides were then incubated at room temperature with the following primary monoclonal antibodies, following manufacturer’s instructions: anti-α smooth muscle actin (αSMA) at 1:500 (Leica Microsystems Ltd), anti-CD68 at 1:3000 for macrophages (11192-T24, Sino Biological), anti-pro-surfactant C protein at 1:1000 (AB3786, Sigma-Aldrich), anti-caspase-3 at 1:10000 (AB4051, Abcam), anti-aquaporin 5 (31661, Invitrogen), anti-pan-cytokeratin for epithelial cells (760-2595, Roche), and anti-vimentin for mesenchymal cells (790-2917, Roche). […]
A board-certified pathologist evaluated the changes (epithelial thinning, separation/detachment areas, necrosis, collagen, and presence of apoptotic cells, myofibroblasts, and type II pneumocytes) using a semi-quantitative scoring system (Table 2).

[4] = cited from earlier work
EpiAlveolar™ tissues [5] = assay: Cytokine and chemokine measurements (Luminex), EpiAlveolar model, Laboratory 1; format: cell-based, human; conditions: for MinPoD: EpiAlveolar™ model Laboratory-1, biomarker ICAM-1
From the text: as §1, §2
In Laboratory 1, basal media samples collected from the tissues were collected and stored at ≤ −60°C until analysis. For cytokine/chemokine measurements, 17-Plex, duplex and single-plex analyte detection panels were run on the samples using Human Luminex™ Multiplex Immunoassay kits (R&D Systems). The analytes quantified were TNF-α, IL-6, MMP-9, MMP-3, MMP-1, MMP-2, CXCL10, CCL2, IFN-γ, IL-1ra, CCL7, IL-1a, CCL26, CXCL9, VCAM-1, ICAM-1, and CXCL11 in a 17-plex assay; whereas IL-8 and Serpin E1 in a duplex assay and TGF-β1 in a single-plex assay.

MucilAir™-HF tissues [6] = assay: Mucin-5AC (Muc5AC) immunohistochemistry, goblet cells, MucilAir-HF model; format: cell-based, human; conditions: for Increase in cells expressing Muc5AC protein: 30 min/day
Procedure: (§3) Tissues were handled as recommended by manufacturer’s instruction.
The presence of goblet cells was assessed through immunohistochemistry analysis for mucin-5AC protein (Muc5AC) detection. IL-13 and cytomix were used as positive controls (see item 2.5.2 for additional details). On last day of experiment (day 12), cultures (n = 3 tissues/group) were rinsed in PBS and fixed by immersion in 4% formaldehyde for 20 min. Fixed tissues were embedded into paraffin, sectioned, and processed for staining on paraffin sections. The immunostaining of the sections was performed with the Benchmark automated platform (Ventana-Roche, Hoffmann-La Roche Ltd, Basel, Switzerland) and the Autostainer Link 48 (Agilent, Santa Clara, CA. United States) with the detection kit Ultraview DAB (DAB chromogeny, Hoffmann-La Roche Ltd). Sections were pre-treated using heat mediated antigen retrieval with sodium citrate buffer, pH 6, for 20 min. The section was then incubated with recombinant anti-mucin 5AC antibody (ab3649, Abcam) for 1 h at room temperature, followed by biotinylated secondary antibody (Dako) and HRP detection (HRP conjugated ABC system, Vector Laboratories), according to manufacturer’s instruction. The section was then counterstained with hematoxylin (Sigma-Aldrich) and mounted with DPX, a synthetic non-aqueous mounting medium for microscopy. Digital images of the slides were then acquired, and quantitative image analysis performed using Image Pro Plus 6.2 (Media Cybernetics) to quantify the goblet cells on a section. The whole images of stained sections were scanned, and an average 15 images/section were analysed. The results are the ratio between the mucin 5AC stained area and the total surface area of the epithelium on the section.

MucilAir™-HF tissues [7] = assay: Mucin secretion measurement (enzyme-linked lectin assay), MucilAir-HF model; format: cell-based, human
From the text: as §3
Mucin production was quantified using an enzyme-linked lectin assay, following a protocol previously published ([Rossner et al., 2019]).

MucilAir™-HF model = assay: Bioactivity exposure ratio (BER): lowest in vitro PoD of MucilAir-HF readouts / upper respiratory tract exposure estimate
Procedure: as §4
The model consists of state variables xti,j , response variables ytij and the concentrations of material c^i,j . The response variables yti,j represent the normalized (see below) readout values at timepoint t for material exposure i,j . The mean of the response variable is given by xti,j , so that yti,j∼xti,j+et , where et represents random fluctuations in the readout values, due to observational noise, which are taken to be normally distributed. Dynamical changes in state values are given by xti,j=fxt−1i,j,cti,j+vt . […] For each state space model representing a particular laboratory/readout dataset, SMC simulation was run for three chains at 5,000 iterations each, and first 1,000 iterations were discarded from the final posterior samples. […]

16HBE14 o^− cells = conditions: cited from earlier work
NCI-H292 cells = conditions: 1 µM for 48h; ref Matsuyama et al., 2018; cited from earlier work
[8] = test system: primary human nasal epithelial cells; set-up: method as in Uchenna Agu et al., 1999; conditions: 10^-5 and 10^-3 M for 30-45 min; ref Uchenna Agu et al., 1999; cited from earlier work
MucilAir™-HF tissues [9] = assay: Cytokine and chemokine measurements (Luminex), MucilAir-HF model; format: cell-based, human; conditions: MucilAir-HF, 30 min/day exposure
Procedure: as §3
Basolateral medium samples of the tissue cultures were collected and stored at −80°C until analysis. The following cytokines/chemokines were quantified using customized Human Luminex® Discovery Assay kits (R&D Systems): chemokine (C-C motif) ligand (CCL) 2, CCL7, CCL26, C-X-C motif chemokine ligand (CXCL) 10, CXCL11, intercellular adhesion molecule-1 (ICAM-1), IL-1α, IL-6, IL-8, matrix metalloproteinase (MMP)-1, MMP-2, MMP-3, MMP-7, MMP-9, osteopontin, interferon (IFN)-γ, IL-1 receptor antagonist (IL-1Ra), urokinase-type plasminogen activator receptor (uPAR), tumour necrosis factor (TNF)-α, urokinase (uPA), serpin E1, tissue inhibitor of metalloproteinase 1 (TIMP-1), and TGF-β1. Samples were measured in technical triplicates according to the manufacturer’s recommendation using a Luminex Bio-Plex® 200 RUO System ([…]).

[10] = 30 min/day exposure, day 12, High 1 concentration (third of the tested concentrations), average ± standard deviation
[11] = 30 min/day exposure, day 12, Low concentration (first of the tested concentrations), average ± standard deviation
[12] = 30 min/day exposure, day 12, Medium concentration (second of the tested concentrations), average ± standard deviation

CCCCc1oc2ccccc2c1C(=O)c1cc(I)c(OCCN(CC)CC)c(I)c1 [Amiodarone, Amiodarone hydrochloride]
Cytokines/chemokines modulated (in words) (EpiAlveolar™ tissues [1]; EpiAlveolar, Laboratory 2): upregulated levels of ICAM-1; also recorded: downregulated levels of MMP-1 and MMP-2
MinPoD (EpiAlveolar™ tissues [1]; Day 4, biomarker MMP-1): 6.9528 μg/cm2
MinPoD (EpiAlveolar™ tissues [1]; Day 8, biomarker ICAM-1): 5.203 μg/cm2
MinPoD (EpiAlveolar™ tissues [1]; Day 12, biomarker ICAM-1): 5.033 μg/cm2
BER_min (EpiAlveolar™ model; Day 4, EpiAlveolar™ model Laboratory-2): 3.4764
BER_min (EpiAlveolar™ model; Day 4, Transcriptomics): 0.004237
BER_min (EpiAlveolar™ model; Day 8, EpiAlveolar™ model Laboratory-1): 0.6586
BER_min (EpiAlveolar™ model; Day 8, EpiAlveolar™ model Laboratory-2): 2.602
BER_min (EpiAlveolar™ model; Day 8, Transcriptomics): 0.004247
BER_min (EpiAlveolar™ model; Day 12, EpiAlveolar™ model Laboratory-1): 0.4855
BER_min (EpiAlveolar™ model; Day 12, EpiAlveolar™ model Laboratory-2): 2.516
BER_min (EpiAlveolar™ model; Day 12, Transcriptomics): 0.004174
MinPoD (EpiAlveolar™ tissues [2]; Day 4): 0.008474 μg/cm2
MinPoD (EpiAlveolar™ tissues [2]; Day 8): 0.008494 μg/cm2
MinPoD (EpiAlveolar™ tissues [2]; Day 12): 0.00835 μg/cm2
Patients developing Amiodarone-induced pulmonary fibrosis following typical Amiodarone pneumonitis (patients): 5%–7%
Histological changes compared to vehicle and control groups (in words) (EpiAlveolar™ tissues [3]): changes were not observed
Risk ([4]; Scenario Plasma): High
Risk classification ([4]; per benchmark chemical-exposure scenario (product and exposure scenario of the same line), based on historical safety decisions, ref References column of Table 3): High
Cytokines/chemokines modulated (in words) (EpiAlveolar™ tissues [5]; EpiAlveolar, Laboratory 1): upregulated levels of ICAM-1
MinPoD (EpiAlveolar™ tissues [5]; Day 8): 1.317 μg/cm2
MinPoD (EpiAlveolar™ tissues [5]; Day 12): 0.971 μg/cm2

O=c1ccc2ccccc2o1 [Coumarin]
% of Muc5AC area (MucilAir™-HF tissues [6]; [10]): 3.29 ± 0.36%
% of Muc5AC area (MucilAir™-HF tissues [6]; [11]): 5.09 ± 0.57%
% of Muc5AC area (MucilAir™-HF tissues [6]; [12]): 6.83 ± 1.07%
% of Muc5AC area (MucilAir™-HF tissues [6]; 6 h/day exposure, day 12, single tested concentration, average ± standard deviation): 2.85 ± 0.43%
MinPoD (MucilAir™-HF tissues [7]; Day 8, biomarker Mucins): 6.056 μg/cm2
MinPoD (MucilAir™-HF tissues [7]; Day 12, biomarker Mucins): 4.8708 μg/cm2
BER_min (MucilAir™-HF model; Scenario1, Day 8): 30691.6
BER_min (MucilAir™-HF model; Scenario1, Day 12): 24110.2

IL-13: goblet cell hyper-, metaplasia agent used as positive control at 10 ng/mL
Increase in cells expressing Muc5AC protein compared to unexposed tissues (MucilAir™-HF tissues [6]; positive control IL-13 at 10 ng/mL): 4 fold
% of Muc5AC area (MucilAir™-HF tissues [6]; positive controls via liquid basal exposure, 30 min/day column, day 12, average ± standard deviation): 26.35 ± 3.34%

CC(C)NCC(O)c1ccc(O)c(O)c1 (stereo not drawn) [Isoproterenol, Isoproterenol hydrochloride]
IL-8 levels (16HBE14 o^− cells; 1-30 nM for 18h, 16HBE cells, ref Lindén, 1996): IL-8 levels were also increased
IL-6 and IL-8 release (16HBE14 o^− cells; 10-100 nM for 24h, ref Oehme et al., 2015): significant increase of IL-6 and IL-8 release
MUC5AC mRNA expression (NCI-H292 cells): significant increase in MUC5AC mRNA expression
CBF [8]: maximally and irreversibly increased ciliary CBF
Increase in cells expressing Muc5AC protein (MucilAir™-HF tissues [6]; 50 μM): 2.5 fold
Increase in cells expressing Muc5AC protein (MucilAir™-HF tissues [6]; 100 μM): 3 fold
% of Muc5AC area (MucilAir™-HF tissues [6]; [10]): 18.91 ± 3.09%
% of Muc5AC area (MucilAir™-HF tissues [6]; [11]): 8.78 ± 1.62%
% of Muc5AC area (MucilAir™-HF tissues [6]; [12]): 15.53 ± 1.41%
Cytokines/chemokines modulated (in words) (MucilAir™-HF tissues [9]): downregulation of MMP-7 only
